Source: patent US20210403922A1 (CRISP-HR Therapeutics, Inc., priority 2019, published 2021)
“Also recorded” adds a separate entry of the source.

Columns and labels:
HBB genomic region = assay: Sanger sequencing of the HBB genomic region after Cas9 and gRNA transfection; type: cell-based, Human; settings: FIG. 6C / FIG. 13B, A549 cells, unmodified Cas9
A549 cells = assay: Resazurin reduction assay, gRNA targeting exon 1 of HBB gene; type: cell-based, Human; settings: FIG. 6B / FIG. 13A
Procedure: Cells are cultured in a 96-well plate and each well is seeded with about 2.5×10^4 cells. Each column of the 96-well plate receives a treatment with different plasmid respectively. […] The cells in the first column are transfected with plasmids encoding the first fusion protein as shown in FIG. 1; the cells in the second column with plasmids encoding the second fusion protein as shown in FIG. 1; the cells in the third column with plasmids encoding the third fusion protein as shown in FIG. 1; the cells in the fourth column with plasmids encoding the fourth fusion protein as shown in FIG. 1; the cells in the fifth column with plasmids encoding the fifth fusion protein as shown in FIG. 1; the cells in the sixth column with plasmids encoding the sixth fusion protein as shown in FIG. 1; the cells in the seventh column with plasmids encoding the seventh fusion protein as shown in FIG. 1; the cells in the eighth column with plasmids encoding the eighth fusion protein as shown in FIG. 1; and the cells in the ninth column with plasmids encoding the ninth fusion protein as shown in FIG. 1. […] The cells in the twelfth column are transfected with plasmids encoding GFPs. The cells in the […] are controls without any treatment.
Each of the plasmid constructs also contained a nucleotide sequence encoding a gRNA directed to recognize exon 1 of the human HBB gene. […] Three gRNA sequences as listed in Table 2 directed to recognize one of HBB gene's exon were used.
Toxicity was quantified using Resazurin as in Example 1.

[1] = tested on: phosphorylated 5′-double strand DNA ends; settings: cited from earlier work

Molecule | Cas9 cleavage and repair via NHEJ (INDELs) by Sanger sequencing (HBB genomic region) | Cas9 cleavage and repair via NHEJ (INDELs) by Sanger sequencing (HBB genomic region; listed as Cas9 HBB-G3) | cellular toxicity of HBB gRNA guides with unmodified Cas9 (NT) (A549 cells) | cellular toxicity of HBB gRNA guides with unmodified Cas9 (NT) (A549 cells; listed as NT HBB-G3) | cellular toxicity of HBB gRNA guides with unmodified Cas9 (NT) (A549 cells; listed as gRNA G3) | affinity for phosphorylated 5′-double strand DNA ends as for unphosphorylated [1]
HBB-G1: gRNA designed to target Exon 1 of the HBB gene, SEQ ID NO: 21 (guide GUAACGGCAGACUUCUCCUC; chemistry not given here) | could not be detected |  |  |  |  | 
HBB-G3: gRNA designed to target Exon 1 of the HBB gene, SEQ ID NO: 23 (guide GAGGUGAACGUGGAUGAAGU; chemistry not given here) | characteristic noise following Cas9 cleavage and repair via NHEJ pathways; also recorded: significant cleavage | generation of INDELs | higher toxicity than either HBB-G1 or HBB-G2 | smallest normalized fold change number | highest cellular toxicity | 
hExo1: human Exo1 exonuclease; N-terminal nuclease region SEQ ID NO: 1 (protein, listed as Homo sapiens) MGIQGLLQFIKEASEPIHVRKYKGQVVAVDTYCWLHKGAIACAEKLAKGEPTDRYVGFCMKFVNMLLSHGIKPILVFDGCTLPSKKEVERSRRERRQANLLKGKQLLREGKVSEARECFTRSINITHAMAHKVIKAARSQGVDCLVAPYEADAQLAYLNKAGIVQAIITEDSDLLAFGCKKVILKMDQFGNGLEIDQARLGMCRQLGDVFTEEKFRYMCILSGCDYLSSLRGIGLAKACKVLRLANNPDIVKVIKKIGHYLKMNITVPEDYINGFIRANNTFLYQLVFDPIKRKLIPLNAYEDDVDPETLSYAGQYVDDSIALQIALGNKDINTFEQIDDYNPDTAMPAHSRSHSWDDKTCQKSANVSSIWHRNYSPRPESGTVSDAPQLKE |  |  |  |  |  | roughly 10 ×
